Measurements taken from patent US11813333B2, “Use of high molecular weight polyethylene glycol compositions to restore the efficacy of pegylated therapeutic compositions” (THE UNIVERSITY OF NORTH CAROLINA AT CHAPEL HILL, priority 2017, dated 2023).

Assays:
[1] = test system: anti-PEG antibodies (APA); conditions: patients with chronic refractory gout; cited from earlier work
[2] = test system: anti-PEG antibodies (APA); conditions: mouse, in vivo
Protocol: Adult BALB/c mice (18-22 weeks, female, Charles River) were passively immunized with APA by the intravenous administration of mouse anti-PEG IgG1 (Silver Lake Research, CH2076, lot K0868) 24 hours prior to the intravenous administration of PLD (3 mg/kg, Doxil®, Janssen Products, LP). […] Other groups received PBS 0.5 hours prior to the administration of PLD as a control. At time points of 0.083, 3, 6, 24, 48, and 96 hours following PLD administration, mice were anesthetized using ketamine (100 mg/kg, i.p.) and medetomidine hydrochloride (1 mg/kg, i.p.), then sacrificed via cardiac puncture (into sodium heparin vacutainers) and cervical dislocation. The blood, liver, spleen, and lungs were collected for doxorubicin quantification.
Briefly, blood samples were collected in sodium heparin tubes at 0.083, 3, 6, 24, 48 and 96 hours after the administration of PLD. Blood was centrifuged at 1,500 g for 5 minutes to obtain plasma. Encapsulated and released doxorubicin in plasma were separated using solid phase separation. Tissues of interest were flash frozen in liquid nitrogen and stored at −80° C. until processing. Upon processing, tissues were thawed, weighed, and diluted in a 1:3 ratio with phosphate buffered saline prior to homogenizing with a Precellys 24 bead mill homogenizer (Omni International Inc, Kennesaw, GA). Samples were further processed by addition of 800 μL extraction solution (acetonitrile with 100 ng/mL daunorubicin internal standard) to 200 μL of plasma or tissue homogenate. The samples were vortexed for 10 minutes and centrifuged at 10,000 g for 10 minutes at 4° C. […] The samples were then vortexed, transferred to autosampler vials, and analyzed by high-performance liquid chromatography with fluorescence detection (HPLC-FL) set to excitation wavelength 490 nm/emission wavelength 590 nm. […] Samples that returned a concentration above the quantitative limit were diluted to fall within the quantitative range and reinjected.

time by which the vast majority of the PLD is found in the liver (delayed hepatic accumulation) [2] [h] | Substance | fraction of patients that developed APA leading to rapid clearance of the enzyme from the blood [1]
– | pegloticase | roughly one-third
3 | polyethylene glycol [PEG 10 kDa] | –
24 | polyethylene glycol [PEG 20 kDa] | –
96 | polyethylene glycol [PEG 40 kDa] | –
